Measured values taken from ChEMBL document CHEMBL5154811, “Discovery of SPH5030, a Selective, Potent, and Irreversible Tyrosine Kinase Inhibitor for HER2-Amplified and HER2-Mutant Cancer Treatment” (J Med Chem, 2022).

Key:
[1] = Toxicity in BALB/c nude mouse xenografted with mouse BaF3 cells harbouring HER2 A775_G776insYVMA mutant assessed as reduction in body weight at 10 to 40 mg/kg, po qd for 13 days; format: organism-based; conditions: in vivo, 312 h, dose 10-40 mg/kg, time 13 day
[2] = Cmax in ICR mouse at 10 mg/kg, po measured upto 1440 mins by LC/MS/MS analysis; format: ADME, organism-based; set-up: dose 10 mg/kg, time < 1440 min, route po; conditions: in vivo
MDA-MB-468 = assay: Antiproliferative activity against human MDA-MB-468 cells overexpressing wild type EGFR assessed as cell growth inhibition incubated for 72 hrs by Celltiter-Glo assay; format: functional, cell-based; conditions: MDA-MB-468, 72 h
[3] = Clearance in Sprague-Dawley rat at 3 mg/kg, iv measured upto 1440 mins by LC/MS/MS analysis; format: ADME, organism-based; conditions: in vivo
[4] = Toxicity in BALB/c nude mouse xenografted with human BT-474 cells assessed as reduction in body weight at 5 to 40 mg/kg, po administered once daily for 21 days; format: organism-based; conditions: in vivo, 504 h, dose 5-40 mg/kg, time 21 day
[5] = biological target: Receptor tyrosine-protein kinase erbB-2 (Homo sapiens, UniProt P04626); assay: Inhibition of wild type human GST-tagged HER2 (676 to end residues) expressed in baculovirus infected Sf9 cells incubated for 30 mins in presence of ATP by HTRF analysis
Receptor tyrosine-protein kinase erbB-2 (Homo sapiens, UniProt P04626), sequence (P04626 whole entry): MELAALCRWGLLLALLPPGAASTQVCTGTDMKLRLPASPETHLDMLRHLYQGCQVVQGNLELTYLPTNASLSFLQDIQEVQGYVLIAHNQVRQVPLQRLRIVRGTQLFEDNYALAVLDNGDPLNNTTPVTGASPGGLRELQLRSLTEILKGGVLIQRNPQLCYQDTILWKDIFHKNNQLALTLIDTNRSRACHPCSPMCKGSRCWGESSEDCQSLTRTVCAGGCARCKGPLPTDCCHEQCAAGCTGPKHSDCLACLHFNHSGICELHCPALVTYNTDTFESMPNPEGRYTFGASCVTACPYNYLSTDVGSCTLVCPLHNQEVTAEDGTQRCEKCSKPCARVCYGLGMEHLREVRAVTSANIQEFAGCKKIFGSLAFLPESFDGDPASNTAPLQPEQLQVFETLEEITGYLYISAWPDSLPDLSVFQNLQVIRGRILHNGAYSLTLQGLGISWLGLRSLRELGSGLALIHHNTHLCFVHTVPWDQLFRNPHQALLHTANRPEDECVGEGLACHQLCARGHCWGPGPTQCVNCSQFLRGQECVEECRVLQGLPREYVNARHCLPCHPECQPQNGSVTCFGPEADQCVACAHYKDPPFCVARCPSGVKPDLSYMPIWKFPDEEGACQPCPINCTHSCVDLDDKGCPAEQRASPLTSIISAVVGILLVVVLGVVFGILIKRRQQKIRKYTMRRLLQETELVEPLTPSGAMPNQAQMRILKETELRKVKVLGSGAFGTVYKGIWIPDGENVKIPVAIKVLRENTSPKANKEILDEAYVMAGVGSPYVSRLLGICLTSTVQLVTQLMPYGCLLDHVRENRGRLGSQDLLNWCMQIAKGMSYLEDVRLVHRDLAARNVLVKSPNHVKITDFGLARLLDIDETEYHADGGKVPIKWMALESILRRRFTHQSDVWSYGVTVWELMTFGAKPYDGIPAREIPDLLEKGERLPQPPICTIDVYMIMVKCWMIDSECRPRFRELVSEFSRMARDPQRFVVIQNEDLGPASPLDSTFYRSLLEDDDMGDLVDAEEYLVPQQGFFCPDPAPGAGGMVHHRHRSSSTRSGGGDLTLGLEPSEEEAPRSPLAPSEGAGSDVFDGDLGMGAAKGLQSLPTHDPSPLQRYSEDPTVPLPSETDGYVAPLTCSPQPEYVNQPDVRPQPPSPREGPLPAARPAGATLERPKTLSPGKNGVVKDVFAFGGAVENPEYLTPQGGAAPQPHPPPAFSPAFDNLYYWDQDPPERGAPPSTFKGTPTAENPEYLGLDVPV

[6] = Half life in ICR mouse at 3 mg/kg, iv measured upto 1440 mins by LC/MS/MS analysis; format: ADME, organism-based; conditions: in vivo
[7] = Half life in cynomolgus monkey at 15 mg/kg, po measured upto 1440 mins by LC/MS/MS analysis; format: ADME, organism-based, Macaca fascicularis; conditions: in vivo
[8] = Metabolic stability in human liver microsomes assessed as half life at 1 uM preincubated for 5 mins followed by NADPH addition by LC-MS/MS analysis; format: ADME, Microsome
NCI-N87 [9] = assay: Antitumor activity against human NCI-N87 cells xenografted in BALB/c nude mouse assessed as tumor growth inhibition by measuring relative tumor growth at 20 mg/kg/day, po administered once daily for 21 days by caliper method relative to control; format: functional; conditions: time 21 day
NCI-N87 [10] = assay: Antitumor activity against human NCI-N87 cells xenografted in BALB/c nude mouse assessed as tumor growth inhibition by measuring relative tumor growth at 10 mg/kg/day, po administered once daily for 21 days by caliper method relative to control; format: functional; conditions: time 21 day
MFE-280 = assay: Antiproliferative activity against human MFE-280 cells assessed as cell growth inhibition incubated for 72 hrs by Celltiter-Glo assay; format: functional, cell-based; conditions: MFE-280, 72 h
BaF3 [11] = assay: Antitumor activity against mouse BaF3 cells harbouring HER2 A775_G776insYVMA mutant xenografted in BALB/c nude mouse assessed as tumor growth inhibition by measuring relative tumor growth at 40 mg/kg, po qd for 13 days by caliper method relative to control; format: functional; conditions: time 13 day
[12] = biological target: Receptor tyrosine-protein kinase erbB-2 (Homo sapiens, UniProt P04626, R896C); assay: Inhibition of HER2 R896C mutant (unknown origin) incubated for 120 mins in presence of 33P-ATP by P81 ion exchange cellulose chromatography
Receptor tyrosine-protein kinase erbB-2 (Homo sapiens, UniProt P04626, R896C), sequence (P04626 23-1255 R896C limits assumed): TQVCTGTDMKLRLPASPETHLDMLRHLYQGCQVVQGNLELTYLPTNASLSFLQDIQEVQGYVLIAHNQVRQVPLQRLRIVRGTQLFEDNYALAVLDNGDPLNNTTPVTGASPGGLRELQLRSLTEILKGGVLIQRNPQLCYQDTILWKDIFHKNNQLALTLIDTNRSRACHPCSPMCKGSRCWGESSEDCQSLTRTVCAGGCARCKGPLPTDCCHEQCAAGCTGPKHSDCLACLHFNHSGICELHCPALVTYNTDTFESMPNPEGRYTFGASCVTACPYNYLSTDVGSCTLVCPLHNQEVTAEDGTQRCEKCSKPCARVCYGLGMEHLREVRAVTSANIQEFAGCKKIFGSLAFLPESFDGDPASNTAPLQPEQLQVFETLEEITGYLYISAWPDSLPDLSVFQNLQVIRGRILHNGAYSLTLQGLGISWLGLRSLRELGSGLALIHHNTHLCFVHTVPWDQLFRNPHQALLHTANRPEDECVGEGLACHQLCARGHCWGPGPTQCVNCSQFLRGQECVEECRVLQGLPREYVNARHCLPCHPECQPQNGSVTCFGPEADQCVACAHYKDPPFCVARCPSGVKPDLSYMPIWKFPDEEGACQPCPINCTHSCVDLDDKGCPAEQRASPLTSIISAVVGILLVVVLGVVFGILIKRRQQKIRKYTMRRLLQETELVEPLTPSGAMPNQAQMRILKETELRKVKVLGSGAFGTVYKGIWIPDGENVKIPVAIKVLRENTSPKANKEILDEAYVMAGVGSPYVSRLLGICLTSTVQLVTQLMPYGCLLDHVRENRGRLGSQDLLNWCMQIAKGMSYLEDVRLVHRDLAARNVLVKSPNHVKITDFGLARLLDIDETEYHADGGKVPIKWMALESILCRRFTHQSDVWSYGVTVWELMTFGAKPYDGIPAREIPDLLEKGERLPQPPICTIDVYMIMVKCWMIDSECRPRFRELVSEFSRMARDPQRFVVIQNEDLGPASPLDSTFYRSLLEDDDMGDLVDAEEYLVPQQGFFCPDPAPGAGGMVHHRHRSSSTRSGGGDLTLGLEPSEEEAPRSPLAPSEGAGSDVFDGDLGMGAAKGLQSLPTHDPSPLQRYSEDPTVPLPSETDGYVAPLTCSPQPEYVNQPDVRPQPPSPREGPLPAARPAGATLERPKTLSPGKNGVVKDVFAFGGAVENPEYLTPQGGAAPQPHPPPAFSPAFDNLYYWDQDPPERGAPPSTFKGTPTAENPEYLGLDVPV

BT-474 = assay: Antitumor activity against human BT-474 cells xenografted in BALB/c nude mouse assessed as tumor growth inhibition at 20 mg/kg/day, po administered once daily for 21 days relative to control; format: functional; conditions: BT-474, 504 h, time 21 day, read-out: TGI
[13] = Toxicity in BALB/c nude mouse xenografted with human NCI-N87 cells assessed as reduction in body weight at 5 to 40 mg/kg, po administered once daily for 21 days; format: organism-based; conditions: in vivo, 504 h, dose 5-40 mg/kg, time 21 day
[14] = Volume of distribution at steady state in cynomolgus monkey at 1 mg/kg, iv measured upto 1440 mins by LC/MS/MS analysis; format: ADME, organism-based, Macaca fascicularis; conditions: in vivo, read-out: Vdss
[15] = Volume of distribution at steady state in Sprague-Dawley rat at 3 mg/kg, iv measured upto 1440 mins by LC/MS/MS analysis; format: ADME, organism-based; conditions: in vivo, read-out: Vdss
[16] = Clearance in cynomolgus monkey at 1 mg/kg, iv measured upto 1440 mins by LC/MS/MS analysis; format: ADME, organism-based, Macaca fascicularis; conditions: in vivo
[17] = Half life in ICR mouse at 10 mg/kg, po measured upto 1440 mins by LC/MS/MS analysis; format: ADME, organism-based; conditions: in vivo
[18] = Metabolic stability in human liver microsomes assessed as intrinsic clearance at 1 uM preincubated for 5 mins followed by NADPH addition by LC-MS/MS analysis; format: ADME, Microsome; conditions: read-out: CLH
[19] = Volume of distribution at steady state in ICR mouse at 3 mg/kg, iv measured upto 1440 mins by LC/MS/MS analysis; format: ADME, organism-based; conditions: in vivo, read-out: Vdss
[20] = Half life in cynomolgus monkey at 1 mg/kg, iv measured upto 1440 mins by LC/MS/MS analysis; format: ADME, organism-based, Macaca fascicularis; conditions: in vivo
NUGC-4 = assay: Antiproliferative activity against human NUGC-4 cells assessed as cell growth inhibition incubated for 72 hrs by Celltiter-Glo assay; format: functional, cell-based; conditions: NUGC-4, 72 h
BaF3 [21] = assay: Antitumor activity against mouse BaF3 cells harbouring HER2 A775_G776insYVMA mutant xenografted in BALB/c nude mouse assessed as tumor growth inhibition by measuring relative tumor growth at 10 mg/kg, po qd for 13 days by caliper method relative to control; format: functional; conditions: time 13 day
NCI-H441 = assay: Antiproliferative activity against human NCI-H441 cells assessed as cell growth inhibition incubated for 72 hrs by Celltiter-Glo assay; format: functional, cell-based; conditions: NCI-H441, 72 h
[22] = biological target: Receptor tyrosine-protein kinase erbB-2 (Homo sapiens, UniProt P04626, D769Y); assay: Inhibition of HER2 D769Y mutant (unknown origin) incubated for 120 mins in presence of 33P-ATP by P81 ion exchange cellulose chromatography
Receptor tyrosine-protein kinase erbB-2 (Homo sapiens, UniProt P04626, D769Y), sequence (P04626 23-1255 D769Y limits assumed): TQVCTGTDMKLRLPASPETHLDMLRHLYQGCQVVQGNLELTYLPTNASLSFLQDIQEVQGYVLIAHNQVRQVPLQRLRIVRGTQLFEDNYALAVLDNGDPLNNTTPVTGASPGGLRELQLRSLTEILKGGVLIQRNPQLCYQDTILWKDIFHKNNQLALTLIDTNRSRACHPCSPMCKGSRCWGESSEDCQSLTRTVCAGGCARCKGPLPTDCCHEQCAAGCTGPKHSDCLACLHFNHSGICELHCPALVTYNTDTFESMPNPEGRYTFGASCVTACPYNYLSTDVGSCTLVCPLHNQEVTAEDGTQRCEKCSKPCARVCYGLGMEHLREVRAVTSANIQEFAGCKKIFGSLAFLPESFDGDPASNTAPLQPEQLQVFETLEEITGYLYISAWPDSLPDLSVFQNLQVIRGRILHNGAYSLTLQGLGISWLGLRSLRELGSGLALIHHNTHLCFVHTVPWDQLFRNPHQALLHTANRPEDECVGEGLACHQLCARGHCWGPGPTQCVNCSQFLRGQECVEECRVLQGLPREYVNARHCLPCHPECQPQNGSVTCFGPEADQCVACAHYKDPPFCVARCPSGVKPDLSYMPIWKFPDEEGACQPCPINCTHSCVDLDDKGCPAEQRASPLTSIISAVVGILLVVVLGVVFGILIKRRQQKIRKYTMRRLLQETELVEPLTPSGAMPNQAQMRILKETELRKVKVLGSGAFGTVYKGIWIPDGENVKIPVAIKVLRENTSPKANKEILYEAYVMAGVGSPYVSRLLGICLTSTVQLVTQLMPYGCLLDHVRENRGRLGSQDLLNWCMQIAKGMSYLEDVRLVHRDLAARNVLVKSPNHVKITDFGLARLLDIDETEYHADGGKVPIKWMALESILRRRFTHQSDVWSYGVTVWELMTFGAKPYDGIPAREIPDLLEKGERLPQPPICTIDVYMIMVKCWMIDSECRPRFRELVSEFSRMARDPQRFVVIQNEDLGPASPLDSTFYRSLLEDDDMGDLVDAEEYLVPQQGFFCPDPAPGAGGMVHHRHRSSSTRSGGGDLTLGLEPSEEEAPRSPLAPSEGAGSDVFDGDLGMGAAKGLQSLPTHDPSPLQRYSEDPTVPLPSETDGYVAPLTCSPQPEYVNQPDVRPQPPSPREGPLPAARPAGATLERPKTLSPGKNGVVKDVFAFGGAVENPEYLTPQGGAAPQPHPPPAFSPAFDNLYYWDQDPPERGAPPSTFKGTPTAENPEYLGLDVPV

NCI-N87 [23] = assay: Antiproliferative activity against human NCI-N87 cells assessed as inhibition of cell growth incubated for 72 hrs by Celltiter-Glo assay; format: functional, cell-based; conditions: NCI-N87, 72 h
[24] = Toxicity in BALB/c nude mouse xenografted with human BT-474 cells assessed as mortality at 5 to 40 mg/kg, po administered once daily for 21 days; format: organism-based; conditions: in vivo, 504 h, dose 5-40 mg/kg, time 21 day
[25] = Cmax in cynomolgus monkey at 15 mg/kg, po measured upto 1440 mins by LC/MS/MS analysis; format: ADME, organism-based, Macaca fascicularis; set-up: dose 15 mg/kg, time < 1440 min, route po; conditions: in vivo
[26] = biological target: Epidermal growth factor receptor (Homo sapiens, UniProt P00533); assay: Inhibition of wild type human N-terminal GST tagged EGFR (669 to 1210 residues) expressed in Sf21 insect cells incubated for 30 mins in presence of ATP by HTRF analysis
Epidermal growth factor receptor, sequence (P00533 whole entry, the tested form may be a part): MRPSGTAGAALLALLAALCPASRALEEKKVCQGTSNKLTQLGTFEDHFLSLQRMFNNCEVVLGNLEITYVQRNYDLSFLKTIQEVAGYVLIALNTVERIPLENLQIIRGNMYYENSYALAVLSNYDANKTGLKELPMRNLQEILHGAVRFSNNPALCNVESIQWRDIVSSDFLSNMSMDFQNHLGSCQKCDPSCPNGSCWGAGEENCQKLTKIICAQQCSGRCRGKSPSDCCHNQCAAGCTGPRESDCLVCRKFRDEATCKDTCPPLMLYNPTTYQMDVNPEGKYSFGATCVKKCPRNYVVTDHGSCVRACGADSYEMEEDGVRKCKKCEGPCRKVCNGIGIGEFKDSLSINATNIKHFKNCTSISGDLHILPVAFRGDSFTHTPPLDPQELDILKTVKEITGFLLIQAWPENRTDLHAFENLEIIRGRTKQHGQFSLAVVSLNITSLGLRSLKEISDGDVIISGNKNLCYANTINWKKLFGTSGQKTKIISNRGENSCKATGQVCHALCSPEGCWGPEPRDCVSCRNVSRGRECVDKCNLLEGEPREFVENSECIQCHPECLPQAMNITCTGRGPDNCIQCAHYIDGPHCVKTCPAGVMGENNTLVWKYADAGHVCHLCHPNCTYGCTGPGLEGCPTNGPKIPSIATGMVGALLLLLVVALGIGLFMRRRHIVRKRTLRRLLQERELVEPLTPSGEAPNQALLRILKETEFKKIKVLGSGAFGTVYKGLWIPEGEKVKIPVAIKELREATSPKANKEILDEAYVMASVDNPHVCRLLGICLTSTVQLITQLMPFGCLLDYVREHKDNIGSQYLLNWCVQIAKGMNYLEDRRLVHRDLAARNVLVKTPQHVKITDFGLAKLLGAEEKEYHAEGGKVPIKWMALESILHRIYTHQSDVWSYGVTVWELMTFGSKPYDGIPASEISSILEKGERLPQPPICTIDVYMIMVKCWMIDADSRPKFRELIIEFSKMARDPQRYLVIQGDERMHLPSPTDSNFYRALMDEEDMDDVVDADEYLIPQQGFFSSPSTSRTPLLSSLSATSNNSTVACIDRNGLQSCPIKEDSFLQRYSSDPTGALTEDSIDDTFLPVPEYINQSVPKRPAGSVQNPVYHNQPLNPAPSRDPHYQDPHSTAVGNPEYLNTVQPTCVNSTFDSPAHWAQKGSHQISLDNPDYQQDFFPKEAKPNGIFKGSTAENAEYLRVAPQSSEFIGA

[27] = Toxicity in BALB/c nude mouse xenografted with mouse BaF3 cells harbouring HER2 A775_G776insYVMA mutant assessed as mortality at 10 to 40 mg/kg, po qd for 13 days; format: organism-based; conditions: in vivo, 312 h, dose 10-40 mg/kg, time 13 day
[28] = Tmax in cynomolgus monkey at 15 mg/kg, po measured upto 1440 mins by LC/MS/MS analysis; format: ADME, organism-based, Macaca fascicularis; conditions: in vivo
BaF3 [29] = assay: Antitumor activity against mouse BaF3 cells harbouring HER2 A775_G776insYVMA mutant xenografted in BALB/c nude mouse assessed as tumor growth inhibition at 20 mg/kg, po qd measured for 13 days relative to control; format: functional; conditions: BaF3, 312 h, time 13 day, read-out: TGI

Q: For CCOc1cc2ncnc(Nc3ccc(Oc4cc5nncn5cn4)c(C)c3)c2cc1NC(=O)/C(F)=C/[C@H]1CCCN1C, which Activity [1] is on record?
A: Non-Toxic

Q: What about the Cmax [2] of the same molecule?
A: 1900 ng/mL

Q: And the IC50 (MDA-MB-468)?
A: 2980 nM

Q: And the clearance [3]?
A: 13 mL/min/kg

Q: What about the Activity [4] of the same molecule?
A: Non-Toxic

Q: What about the IC50 [5] of the same molecule?
A: 3.51 nM

Q: What about the half-life [6] of the same molecule?
A: 226 min

Q: And the half-life [7]?
A: 338 min

Q: What about the half-life at 1 µM [8] of the same molecule?
A: 555 min

Q: What about the T/C (NCI-N87 [9]) of the same molecule?
A: 2.03%

Q: And the T/C (NCI-N87 [10])?
A: 2.6%

Q: And the IC50 (MFE-280)?
A: 3.97 µM

Q: What about the T/C (BaF3 [11]) of the same molecule?
A: 2%

Q: And the IC50 [12]?
A: 0.56 nM

Q: And the inhibition in vivo at 20 mg/kg/day (BT-474)?
A: 123%

Q: What about the Activity [13] of the same molecule?
A: Non-Toxic

Q: And the Vd [14]?
A: 3.71 L/kg

Q: And the Vd [15]?
A: 3.55 L/kg

Q: And the clearance [16]?
A: 10.2 mL/min/kg

Q: And the half-life [17]?
A: 216 min

Q: And the microsomal CLint at 1 µM [18]?
A: 2.5 µL/min/mg

Q: What about the Vd [19] of the same molecule?
A: 2.96 L/kg

Q: What about the half-life [20] of the same molecule?
A: 448 min

Q: And the IC50 (NUGC-4)?
A: 1220 nM

Q: And the T/C (BaF3 [21])?
A: 16.66%

Q: And the IC50 (NCI-H441)?
A: 4.26 µM

Q: What about the IC50 [22] of the same molecule?
A: 0.43 nM

Q: And the IC50 (NCI-N87 [23])?
A: 1.09 nM

Q: And the Activity [24]?
A: Non-Toxic

Q: And the Cmax [25]?
A: 790 ng/mL

Q: And the IC50 [26]?
A: 8.13 nM

Q: What about the Activity [27] of the same molecule?
A: Non-Toxic

Q: What about the Tmax [28] of the same molecule?
A: 7.5 h

Q: What about the inhibition in vivo at 20 mg/kg (BaF3 [29]) of the same molecule?
A: 107%
